Results from PubChem BioAssay (NCI).
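Tested at 5 concentrations; 48 h exposure; 96-well plates; endpoints linearly interpolated, else capped at highest concentration. TGI marks complete inhibition of growth.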

Legend:
Experiment in all cases: inhibition of tumour cell growth, NCI panel, 48 h
[1] = test system: HCT-15 colon
[2] = test system: MOLT-4 leukemia
[3] = test system: HOP-92 NSCLC
[4] = test system: SNB-75 CNS
[5] = test system: OVCAR-3 ovarian
[6] = test system: SR leukemia
[7] = test system: RXF 393 renal
[8] = test system: MDA-MB-231 breast
[9] = test system: OVCAR-8 ovarian
[10] = test system: SK-OV-3 ovarian
[11] = test system: HS 578T breast
[12] = test system: ACHN renal
[13] = test system: SK-MEL-28 melanoma
[14] = test system: SW-620 colon
[15] = test system: SF-295 CNS
[16] = test system: MDA-N
[17] = test system: COLO 205 colon
[18] = test system: MCF7 breast
[19] = test system: NCI-H23 lung
[20] = test system: TK-10 renal
[21] = test system: T-47D breast
[22] = test system: NCI-H460 lung
[23] = test system: SN12C renal
[24] = test system: IGROV1 ovarian
[25] = test system: UACC-257 melanoma
[26] = test system: CAKI-1 renal
[27] = test system: EKVX NSCLC
[28] = test system: U251 CNS
[29] = test system: NCI-H226 lung
[30] = test system: SF-539 CNS
[31] = test system: SK-MEL-5 melanoma
[32] = test system: SF-268 CNS
[33] = test system: HCT-116 colon
[34] = test system: MDA-MB-435
[35] = test system: HL-60(TB) leukemia
[36] = test system: NCI-H522 lung
[37] = test system: CCRF-CEM leukemia
[38] = test system: HOP-62 NSCLC
[39] = test system: MALME-3M melanoma
[40] = test system: 786-0 renal
[41] = test system: OVCAR-5 ovarian
[42] = test system: PC-3 prostate
[43] = test system: A498 renal
[44] = test system: NCI/ADR-RES ovarian
[45] = test system: K-562 leukemia
[46] = test system: OVCAR-4 ovarian
[47] = test system: M14 melanoma
[48] = test system: KM12 colon
[49] = test system: HCC-2998 colon
[50] = test system: BT-549 breast
[51] = test system: HT29 colon
[52] = test system: DU-145 prostate
[53] = test system: RPMI-8226 leukemia
[54] = test system: UO-31 renal
[55] = test system: SK-MEL-2 melanoma
[56] = test system: A549 NSCLC
[57] = test system: LOX IMVI melanoma
[58] = test system: SNB-19 CNS

Work on `NS(=O)(=O)c1ccc(N=Nc2ccc(O)cc2)cc1` yielded a TGI [1] greater than 100 µM, a TGI [2] greater than 100 µM and a TGI [3] greater than 100 µM. The TGI [4] was 88.9 µM, the TGI [5] was greater than 100 µM and the TGI [6] was greater than 100 µM. It also gave a TGI [7] greater than 100 µM, a TGI [8] greater than 100 µM and a TGI [9] greater than 100 µM. It also gave a TGI [10] greater than 100 µM, a TGI [11] greater than 100 µM and a TGI [12] greater than 100 µM. It also gave a TGI [13] greater than 100 µM, a TGI [14] greater than 100 µM and a TGI [15] greater than 100 µM. It also gave a TGI [16] greater than 100 µM, a TGI [17] greater than 100 µM and a TGI [18] greater than 100 µM. The TGI [19] was greater than 100 µM, the TGI [20] was greater than 100 µM and the TGI [21] was greater than 100 µM. It also gave a TGI [22] greater than 100 µM, a TGI [23] greater than 100 µM and a TGI [24] greater than 100 µM. For the same compound, the TGI [25] was greater than 100 µM, the TGI [26] was greater than 100 µM and the TGI [27] was greater than 100 µM. For the same compound, the TGI [28] was greater than 100 µM, the TGI [29] was 89.1 µM and the TGI [30] was greater than 100 µM. It also gave a TGI [31] greater than 100 µM, a TGI [32] greater than 100 µM and a TGI [33] greater than 100 µM. For the same compound, the TGI [34] was greater than 100 µM, the TGI [35] was greater than 100 µM and the TGI [36] was greater than 100 µM. For the same compound, the TGI [37] was greater than 100 µM, the TGI [38] was greater than 100 µM and the TGI [39] was greater than 100 µM. For the same compound, the TGI [40] was greater than 100 µM, the TGI [41] was greater than 100 µM and the TGI [42] was greater than 100 µM. It also gave a TGI [43] greater than 100 µM, a TGI [44] greater than 100 µM and a TGI [45] greater than 100 µM. For the same compound, the TGI [46] was greater than 100 µM, the TGI [47] was greater than 100 µM and the TGI [48] was greater than 100 µM. For the same compound, the TGI [49] was greater than 100 µM, the TGI [50] was 62.5 µM and the TGI [51] was greater than 100 µM. It also gave a TGI [52] greater than 100 µM, a TGI [53] greater than 100 µM and a TGI [54] greater than 100 µM. The TGI [55] was greater than 100 µM, the TGI [56] was greater than 100 µM and the TGI [57] was greater than 100 µM. For the same compound, the TGI [58] was greater than 100 µM.
